Read-outs that look alike come from different tables or passages of the source. Numbered stars: 1 amine (or outer) side, 2 acyl side, 3 side chain; on linkers, the order of the positions; unused ones are H or OH. Bridge positions count the residues as written; N and C are the ends. Square brackets hold non-standard residues; d marks the D form. Peptide text beside a SMILES is read from it. * marks the point of attachment. Piperazine(2S-CO,4-Me) = CN1CCN[C@H](C(=O)O)C1; Morpholine(3S-CO) = O=C(O)[C@@H]1COCCN1; Phe(3-Me) = Cc1cccc(C[C@H](N)C(=O)O)c1; NH(4-Cl-2-F-phenyl) = Fc1cc(Cl)ccc1N*; Pro(4R-Me) = C[C@H]1CN[C@H](C(=O)O)C1; X1 = O=C([C@@H]1CSCCN1[*:1])[*:2]; Hyp = O=C(O)[C@@H]1C[C@@H](O)CN1; NH(4-Et-phenyl) = CCc1ccc(N*)cc1; NH(4-Me-phenyl) = Cc1ccc(N*)cc1; aThr = C[C@H](O)[C@H](N)C(=O)O; Pip = O=C(O)[C@@H]1CCCCN1; CO = O=C([*:1])[*:2]
Experiment: Plasma pharmacokinetics
Format: in vivo, male BALB/c mice
Details: for Vd: read-out: Vss
[1] = male, BALB/c, mouse, in vivo, iv, 10 mg/kg, Route i.v.
[2] = male, BALB/c, mouse, in vivo, iv

| Compound | C^0 (Route i.v.) | AUC(0-inf) (male, BALB/c, mouse, in vivo, iv, 10 mg/kg, Route i.v., read-out: AUCinf) | AUC(0-t) (male, BALB/c, mouse, in vivo, iv, 10 mg/kg, Route i.v., read-out: AUClast) | clearance (male, BALB/c, mouse, in vivo, iv, 10 mg/kg, Route i.v., read-out: CL) | half-life (male, BALB/c, mouse, in vivo, iv, 10 mg/kg, Route i.v., read-out: T1/2 (converted)) | Vd [1] | AUC(0-inf) [2] | AUC(0-t) [2] | C^0 [2] | clearance [2] | half-life [2] |
| --- | --- | --- | --- | --- | --- | --- | --- | --- | --- | --- | --- |
| Cc1ccc(NC(=O)N[C@@H](Cc2cccc(C)c2)C(=O)N[C@@H]2C(=O)N3C[C@H](O)C[C@H]3C(=O)N3CCN(C)C[C@H]3C(=O)N[C@@H](C)C(=O)N3C[C@H](C)C[C@H]3C(=O)O[C@H]2C)cc1 [Compound 30, (S)—N-((6AS,8R,12S,13S,15AS,17R,21S,23AS)-8-HYDROXY-2,13,17,21-TETRAMETHYL-6,11,15,20,23-PENTAOXOOCTADECAHYDRO-2H,6H,11H,15H-PYRAZINO[2,1-I]DIPYRROLO[2,1-C:2′,1′-L][1]OXA[4,7,10,13]TETRAAZACYCLOHEXADECIN-12-YL)-3-(M-TOLYL)-2-(3-(P-TOLYL)UREIDO)PROPANAMIDE] ({NH(4-Me-phenyl)-CO}-[Phe(3-Me)][aThr][Hyp][Piperazine(2S-CO,4-Me)]A[Pro(4R-Me)]; ester 2-C) | 12355.62 ng/mL | 2650 ng·h/mL | 2620 ng·h/mL | 63 mL/min/kg | 2.08 h | 1.74 L/kg |  |  |  |  |  |
| CCc1ccc(NC(=O)N[C@@H](Cc2cccc(C)c2)C(=O)N[C@@H]2C(=O)N3C[C@H](O)C[C@H]3C(=O)N3CCOC[C@H]3C(=O)N[C@@H](C)C(=O)N3C[C@H](C)C[C@H]3C(=O)O[C@H]2C)cc1 [Compound 24, (S)-2-(3-(4-ETHYLPHENYL)UREIDO)-N-((6AS,8R,12S,13S,15AS,17R,21S,23AS)-8-HYDROXY-13,17,21-TRIMETHYL-6,11,15,20,23-PENTAOXOOCTADECAHYDRO-6H,11H,15H-[1,4]OXAZINO[3,4-I]DIPYRROLO[2,1-C:2′,1′-L][1]OXA[4,7,10,13]TETRAAZACYCLOHEXADECIN-12-YL)-3-(M-TOLYL)PROPANAMIDE] ({NH(4-Et-phenyl)-CO}-[Phe(3-Me)][aThr][Hyp][Morpholine(3S-CO)]A[Pro(4R-Me)]; ester 2-C) |  |  |  |  |  | 0.51 L/kg | 3870 ng·h/mL | 3850 ng·h/mL | 27083.47 ng/mL | 43 mL/min/kg | 0.34 h |
| Cc1cccc(C[C@H](NC(=O)Nc2ccc(Cl)cc2F)C(=O)N[C@@H]2C(=O)N3C[C@H](O)C[C@H]3C(=O)N3CCN(C)C[C@H]3C(=O)N[C@@H](C)C(=O)N3C[C@H](C)C[C@H]3C(=O)O[C@H]2C)c1 [Compound 31, (S)-2-(3-(4-CHLORO-2-FLUOROPHENYL)UREIDO)-N-((6AS,8R,12S,13S,15AS,17R,21S,23AS)-8-HYDROXY-2,13,17,21-TETRAMETHYL-6,11,15,20,23-PENTAOXOOCTADECAHYDRO-2H,6H,11H,15H-PYRAZINO[2,1-I]DIPYRROLO[2,1-C:2′,1′-L][1]OXA[4,7,10,13]TETRAAZACYCLOHEXADECIN-12-YL)-3-(M-TOLYL)PROPANAMIDE] ({NH(4-Cl-2-F-phenyl)-CO}-[Phe(3-Me)][aThr][Hyp][Piperazine(2S-CO,4-Me)]A[Pro(4R-Me)]; ester 2-C) |  |  |  |  |  | 0.63 L/kg | 5260 ng·h/mL | 5250 ng·h/mL | 30582.19 ng/mL | 31.7 mL/min/kg | 1.55 h |
| Cc1cccc(C[C@H](NC(=O)Nc2ccc(Cl)cc2F)C(=O)N[C@@H]2C(=O)N3CCC[C@H]3C(=O)N3CCCC[C@H]3C(=O)N[C@@H](C)C(=O)N3C[C@H](C)C[C@H]3C(=O)O[C@H]2C)c1 [Compound 3, (S)-2-(3-(4-CHLORO-2-FLUOROPHENYL)UREIDO)-3-(M-TOLYL)-N-((2R,6S,8AS,14AS,20S,21S,23AS)-2,6,21-TRIMETHYL-5,8,14,19,23-PENTAOXOOCTADECAHYDRO-1H,5H,14H,19H-PYRIDO[2,1-I]DIPYRROLO[2,1-C:2′,1′-L][1]OXA[4,7,10,13]TETRAAZACYCLOHEXADECIN-20-YL)PROPANAMIDE] ({NH(4-Cl-2-F-phenyl)-CO}-[Phe(3-Me)][aThr]P[Pip]A[Pro(4R-Me)]; ester 2-C) |  |  |  |  |  | 2.08 L/kg | 12600 ng·h/mL | 12500 ng·h/mL | 13482.56 ng/mL | 13.3 mL/min/kg | 3.4 h |
| Cc1cccc(C[C@H](NC(=O)Nc2ccc(Cl)cc2F)C(=O)N[C@@H]2C(=O)N3CCC[C@H]3C(=O)N3CCSC[C@H]3C(=O)N[C@@H](C)C(=O)N3C[C@H](C)C[C@H]3C(=O)O[C@H]2C)c1 [Compound 38, (S)-2-(3-(4-CHLORO-2-FLUOROPHENYL)UREIDO)-3-(M-TOLYL)-N-((6AS,12S,13S,15AS,17R,21S,23AR)-13,17,21-TRIMETHYL-6,11,15,20,23-PENTAOXOOCTADECAHYDRO-6H,11H,15H-DIPYRROLO[2,1-C:2′,1′-L][1,4]THIAZINO[3,4-I][1]OXA[4,7,10,13]TETRAAZACYCLOHEXADECIN-12-YL)PROPANAMIDE] ({NH(4-Cl-2-F-phenyl)-CO}-[Phe(3-Me)][aThr]P[X1]A[Pro(4R-Me)]; ester 2-C) |  |  |  |  |  | 1.77 L/kg | 13300 ng·h/mL | 13200 ng·h/mL | 16999.46 ng/mL | 12.6 mL/min/kg | 3.11 h |
| Cc1cccc(C[C@H](NC(=O)Nc2ccc3c(c2)OCO3)C(=O)N[C@H]2COC(=O)[C@@H]3C[C@@H](C)CN3C(=O)[C@H](C)NC(=O)[C@@H]3CCCCN3C(=O)[C@@H]3CCCN3C2=O)c1 [Compound 23, (S)-2-(3-(BENZO[D][1,3]DIOXOL-5-YL)UREIDO)-N-((2R,6S,8AS,14AS,20S,23AS)-2,6-DIMETHYL-5,8,14,19,23-PENTAOXOOCTADECAHYDRO-1H,5H,14H,19H-PYRIDO[2,1-I]DIPYRROLO[2,1-C:2′,1′-L][1]OXA[4,7,10,13]TETRAAZACYCLOHEXADECIN-20-YL)-3-(M-TOLYL)PROPANAMIDE] |  |  |  |  |  | 2.83 L/kg | 12000 ng·h/mL | 11700 ng·h/mL | 25009.24 ng/mL | 13.8 mL/min/kg | 4.57 h |
| CCc1ccc(NC(=O)N[C@@H](Cc2cccc(C)c2)C(=O)N[C@H]2COC(=O)[C@@H]3C[C@@H](C)CN3C(=O)[C@H](C)NC(=O)[C@@H]3CN(C)CCN3C(=O)[C@@H]3CCCN3C2=O)cc1 [Compound 16, (S)-2-(3-(4-ETHYLPHENYL)UREIDO)-3-(M-TOLYL)-N-((6AS,12S,15AS,17R,21S,23AS)-2,17,21-TRIMETHYL-6,11,15,20,23-PENTAOXOOCTADECAHYDRO-2H,6H,11H,15H-PYRAZINO[2,1-I]DIPYRROLO[2,1-C:2′,1′-L][1]OXA[4,7,10,13]TETRAAZACYCLOHEXADECIN-12-YL)PROPANAMIDE] ({NH(4-Et-phenyl)-CO}-[Phe(3-Me)]SP[Piperazine(2S-CO,4-Me)]A[Pro(4R-Me)]; ester 2-C) |  |  |  |  |  | 0.57 L/kg | 3770 ng·h/mL | 3760 ng·h/mL | 18634.35 ng/mL | 44.3 mL/min/kg | 0.25 h |

— patent US10570179B2, “Substituted urea depsipeptide analogs as activators of the CLPP endopeptidase” (priority 2016, dated 2020)
